Assay: wn = mass fraction of the nth substance listed
Conditions: 101 kPa, Liquid, Alternating current cell with electrodes, w2 = 0.01

CCCCCCCCCCCCCCCC[N+](C)(C)C.[Br-] [N,N,N-trimethyl-1-hexadecanaminium bromide] + O
Conditions | electrical conductivity [S/m]
299.55 K | 0.0651
299.75 K | 0.0653
299.95 K | 0.0654
300.25 K | 0.0657
300.85 K | 0.066
301.25 K | 0.0662
301.45 K | 0.0663
302.05 K | 0.0667
302.25 K | 0.0668
302.55 K | 0.067
302.65 K | 0.0671
302.85 K | 0.0672
302.95 K | 0.0666
303.05 K | 0.0673
303.15 K | 0.0675
303.35 K | 0.0676
303.65 K | 0.0678
303.85 K | 0.0679
304.05 K | 0.068
304.25 K | 0.0682
304.45 K | 0.0683
304.55 K | 0.0684
304.75 K | 0.0685
304.95 K | 0.0687
305.15 K | 0.0688
305.45 K | 0.0689
305.65 K | 0.0692
306.25 K | 0.0695
306.45 K | 0.0696
306.85 K | 0.0699
307.05 K | 0.07
307.35 K | 0.0702
307.45 K | 0.0703
307.75 K | 0.0705
307.95 K | 0.0707
308.65 K | 0.0712
308.85 K | 0.0714
309.05 K | 0.0715
309.35 K | 0.0712
309.55 K | 0.0718
309.75 K | 0.0719
309.85 K | 0.0721
310.05 K | 0.0722
310.25 K | 0.0723
310.45 K | 0.0724
310.65 K | 0.0727
310.85 K | 0.0728
311.25 K | 0.073
311.55 K | 0.0732
311.75 K | 0.0735
312.05 K | 0.0737
312.55 K | 0.074
312.95 K | 0.0744
313.35 K | 0.0745
313.55 K | 0.0747
313.75 K | 0.0748
313.95 K | 0.075
314.15 K | 0.0752
314.35 K | 0.0753
314.55 K | 0.0755
314.75 K | 0.0756
314.95 K | 0.0759
315.45 K | 0.0761
315.55 K | 0.0762
315.75 K | 0.0764
315.95 K | 0.0765
316.15 K | 0.0767
316.35 K | 0.0769
316.65 K | 0.0771
317.05 K | 0.0775
317.15 K | 0.0776
318.05 K | 0.0778
318.25 K | 0.0783
318.45 K | 0.0786
318.95 K | 0.079
319.25 K | 0.0792
319.75 K | 0.0798
320.25 K | 0.08
320.35 K | 0.0802
320.65 K | 0.0816
321.85 K | 0.0817
322.05 K | 0.0819
322.25 K | 0.082
322.35 K | 0.0823
322.75 K | 0.0824
322.85 K | 0.0826
323.15 K | 0.083
323.35 K | 0.0832
323.45 K | 0.0834
323.65 K | 0.0837
323.85 K | 0.0839
324.05 K | 0.0841
324.35 K | 0.0842
324.45 K | 0.0843
324.65 K | 0.0846
324.75 K | 0.0848
324.85 K | 0.0849
325.15 K | 0.0853
325.35 K | 0.0855
325.55 K | 0.0856
325.65 K | 0.0858
325.85 K | 0.086
326.15 K | 0.0862
326.25 K | 0.0863
326.45 K | 0.0866
326.55 K | 0.0869
326.75 K | 0.087
326.95 K | 0.0871
327.05 K | 0.0873
327.55 K | 0.0876
327.75 K | 0.0876
333.45 K | 0.0912
333.65 K | 0.0914
333.75 K | 0.0915
334.05 K | 0.0916
334.35 K | 0.092
334.75 K | 0.0922
334.95 K | 0.0924
335.35 K | 0.0926
335.55 K | 0.0927
335.75 K | 0.0929
335.95 K | 0.093
336.15 K | 0.0932
336.55 K | 0.0934
336.65 K | 0.0935
336.85 K | 0.0936
337.05 K | 0.0937
337.25 K | 0.0939
337.55 K | 0.0942
337.75 K | 0.0943
338.05 K | 0.0945
338.15 K | 0.0947
338.55 K | 0.095
338.75 K | 0.0951
338.95 K | 0.0952
339.05 K | 0.0953
339.15 K | 0.0954
339.35 K | 0.0955
339.65 K | 0.0957
339.85 K | 0.0959
340.05 K | 0.096
340.35 K | 0.0962
340.55 K | 0.0963
340.65 K | 0.0964
340.85 K | 0.0966
341.05 K | 0.0967
341.15 K | 0.0968
341.35 K | 0.097
341.55 K | 0.0971
341.65 K | 0.0972
341.85 K | 0.0973
341.95 K | 0.0974
342.05 K | 0.0975
342.25 K | 0.0977
342.45 K | 0.0979
342.75 K | 0.098
342.95 K | 0.0982
343.05 K | 0.0983
343.25 K | 0.0987
343.45 K | 0.0989
343.75 K | 0.099
343.95 K | 0.0991
344.05 K | 0.0993
344.35 K | 0.0995
344.55 K | 0.0996
344.75 K | 0.1
345.05 K | 0.1
345.35 K | 0.1
345.55 K | 0.101
345.85 K | 0.101
346.05 K | 0.101
346.25 K | 0.101
346.55 K | 0.101
346.75 K | 0.102
346.85 K | 0.102
347.05 K | 0.102
347.25 K | 0.102
347.55 K | 0.102
347.75 K | 0.102
348.05 K | 0.103
348.15 K | 0.103

— the NIST ThermoML archive (doi:10.1021/acs.jced.5b00367)
